# Measured values reported in paper PMC11050070, “Chemical Modifications to Enhance the Drug Properties of a VIP Receptor Antagonist (ANT) Peptide” (International Journal of Molecular Sciences, 2024).
# Where no end group is shown, it is not given here.
# Assay: Plasma stability T cell activation study
# Assay type: in vitro ADME
# Settings: 200 μM peptide mixed 1:1 with healthy donors' plasma, 37 °C, aliquots at 24, 48, 72, 96 hrs; read-out pooled human T cell activation at 10 μM; three donors' plasma; retained up to 96 h (longest time tested); Figure S1
# Protocol: 1.3 Plasma Stability T Cell Activation Study
# 200 μM ANT308 or 200 μM ANT308K-PEG were mixed with healthy donors’ plasma at 1:1 ratio, followed by incubation at 37 °C. Aliquots (150 μL) were collected at 24 hrs, 48 hrs, 72 hrs, and 96 hrs and stored at -80 °C before pooled human T cells activation assay. Assays were performed with three different donor ’s plasma.
# Activated T cells Activated T cells
# Non-Activated T cells Non-Activated T cells […]
# Diffe rentDonors’ plasma Diffe rentDonors’ plasma
# Pre-incubation Time ( hrs) Pre-incubation Time ( hrs)
# Figure S1A-F: Plasma stability and human T cells activation. After incubation with healthy donors’ plasma at 37 °C for 24hrs, 48hrs, 72hrs, and 96hrs. 10 μM ANT308 (A,C,E) or 10 μM ANT308K-PEG (B,D,F) were directly mixed with isolated & pooled human T cells with the […]
substance,measurement,value
KPRRPYTSDYTRLRKQMAVKKYLNLILN-NH2 [ANT308],time of incubation in human plasma after which the ability to activate human T cells is retained,≥ 96 h
